Results from patent US12655116B2, “Substituted isophthalic acid diamides” (Bayer Aktiengesellschaft, priority 2020, dated 2026).

What was measured:
ABUTH [1] = test: Pre-emergence herbicidal action against ABUTH; format: in vivo, Abutilon theophrasti; settings: Abutilon theophrasti, 504 h; for pest or weed control at 80 g/ha: scored visually after 3 weeks vs untreated controls (100% = plants have died, 0% = like control plants)
Summary of the method: (§1)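 Greenhouse pots of sandy loam held seeds covered with soil, onto which the compound was applied before emergence. An aqueous suspension or emulsion of WP or EC was used at 600 to 800 l/ha with 0.2% wetting agent. Percent damage was judged visually at 3 weeks.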

ALOMY [2] = test: Pre-emergence herbicidal action against ALOMY; format: in vivo, Alopecurus myosuroides; settings: Alopecurus myosuroides, 504 h; 80 g/ha, pre-emergence, scored visually after 3 weeks vs untreated controls (100% = plants have died, 0% = like control plants)
Summary of the method: as §1

AMARE [3] = test: Pre-emergence herbicidal action against AMARE; format: in vivo, Amaranthus retroflexus; settings: Amaranthus retroflexus, 504 h, scored visually after 3 weeks vs untreated controls, 100% = plants have died, 0% = like control plants
Summary of the method: as §1

AVEFA [4] = test: Pre-emergence herbicidal action against AVEFA; format: in vivo, Avena fatua; settings: Avena fatua, 504 h; 80 g/ha, pre-emergence
Summary of the method: as §1

ECHCG [5] = test: Pre-emergence herbicidal action against ECHCG; format: in vivo, Echinochloa crus-galli; settings: Echinochloa crus-galli, 504 h, 80 g/ha
Summary of the method: as §1

LOLRI = test: Pre-emergence herbicidal action against LOLRI; format: in vivo, Lolium rigidum; settings: Lolium rigidum, 504 h, 80 g/ha
Summary of the method: as §1

MATIN [6] = test: Pre-emergence herbicidal action against MATIN; format: in vivo, Matricaria inodora; settings: Tripleurospermum inodorum, 504 h; for pest or weed control at 20 g/ha: dosage 20 g/ha; for pest or weed control at 80 g/ha: dosage 80 g/ha
Summary of the method: as §1

PHBPU [7] = test: Pre-emergence herbicidal action against PHBPU; format: in vivo, Pharbitis purpurea; settings: Ipomoea purpurea, 504 h, dosage 80 g/ha
Summary of the method: as §1

POLCO = test: Pre-emergence herbicidal action against POLCO; format: in vivo, Polygonum convolvulus; settings: Fallopia convolvulus, 504 h, dosage 80 g/ha
Summary of the method: as §1

SETVI [8] = test: Pre-emergence herbicidal action against SETVI; format: in vivo, Setaria viridis; settings: Setaria viridis, 504 h; for pest or weed control at 80 g/ha: dosage 80 g/ha
Summary of the method: as §1

STEME [9] = test: Pre-emergence herbicidal action against STEME; format: in vivo, Stellaria media; settings: Stellaria media, 504 h; for pest or weed control at 20 g/ha: dosage 20 g/ha; for pest or weed control at 80 g/ha: dosage 80 g/ha
Summary of the method: as §1

VERPE [10] = test: Pre-emergence herbicidal action against VERPE; format: in vivo, Veronica persica; settings: Veronica persica, 504 h; for pest or weed control at 80 g/ha: dosage 80 g/ha
Summary of the method: as §1

VIOTR [11] = test: Pre-emergence herbicidal action against VIOTR; format: in vivo, Viola tricolor; settings: Viola tricolor, 504 h; for pest or weed control at 20 g/ha: dosage 20 g/ha; for pest or weed control at 80 g/ha: dosage 80 g/ha
Summary of the method: as §1

DIGSA [12] = test: Pre-emergence herbicidal action against DIGSA; format: in vivo, Digitaria sanguinalis; settings: Digitaria sanguinalis, 504 h; for pest or weed control at 20 g/ha: dosage 20 g/ha; for pest or weed control at 80 g/ha: dosage 80 g/ha
Summary of the method: as §1

ABUTH [13] = test: Post-emergence herbicidal action against ABUTH; format: in vivo, Abutilon theophrasti; settings: Abutilon theophrasti, 504 h, visual assessment about 3 weeks after treatment vs untreated controls; for pest or weed control at 5 g/ha: dosage 5 g/ha; for pest or weed control at 20 g/ha: dosage 20 g/ha
Summary of the method: (§2)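 Foliar application at one-leaf stage of formulated test compounds, aqueous spray at 600–800 l/ha with 0.2% wetting agent. Greenhouse, optimal conditions, ~3 weeks; damage scored visually in % relative to untreated plants.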

ALOMY [14] = test: Post-emergence herbicidal action against ALOMY; format: in vivo, Alopecurus myosuroides; settings: Alopecurus myosuroides, 504 h, dosage 20 g/ha, visual assessment about 3 weeks after treatment vs untreated controls
Summary of the method: as §2

AMARE [15] = test: Post-emergence herbicidal action against AMARE; format: in vivo, Amaranthus retroflexus; settings: Amaranthus retroflexus, 504 h, 20 g/ha, visual assessment about 3 weeks after treatment, 100% = plants have died, 0% = like control plants
Summary of the method: as §2

ECHCG [16] = test: Post-emergence herbicidal action against ECHCG; format: in vivo, Echinochloa crus-galli; settings: Echinochloa crus-galli, 504 h; for pest or weed control at 20 g/ha: dosage 20 g/ha
Summary of the method: as §2

HORMU = test: Post-emergence herbicidal action against HORMU; format: in vivo, Hordeum murinum; settings: Hordeum murinum, 504 h, dosage 20 g/ha
Method: Seeds of monocotyledonous and dicotyledonous weed and crop plants are laid out in sandy loam soil in wood-fiber pots, covered with soil and cultivated in a greenhouse under good growth conditions. 2 to 3 weeks after sowing, the test plants are treated at the one-leaf stage. The compounds of the invention, formulated in the form of wettable powders (WP) or as emulsion concentrates (EC), are then sprayed onto the green parts of the plants in the form of an aqueous suspension or emulsion at a water application rate equivalent to 600 to 800 l/ha, with addition of 0.2% wetting agent. After the test plants have been left to stand in the greenhouse under optimal growth conditions for about 3 weeks, the action of the preparations is assessed visually in comparison to untreated controls (herbicidal action in percent (%): 100% activity=the plants have died, 0% activity=like control plants). […] The tables below illustrate, in an illustrative manner, the post-emergence herbicidal action of the compounds of the invention, the herbicidal activity being stated in percent.

MATIN [17] = test: Post-emergence herbicidal action against MATIN; format: in vivo, Matricaria inodora; settings: Tripleurospermum inodorum, 504 h, dosage 20 g/ha
Summary of the method: as §2

PHBPU [18] = test: Post-emergence herbicidal action against PHBPU; format: in vivo, Pharbitis purpurea; settings: Ipomoea purpurea, 504 h; for pest or weed control at 20 g/ha: dosage 20 g/ha
Summary of the method: as §2

SETVI [19] = test: Post-emergence herbicidal action against SETVI; format: in vivo, Setaria viridis; settings: Setaria viridis, 504 h; for pest or weed control at 20 g/ha: dosage 20 g/ha
Summary of the method: as §2

STEME [20] = test: Post-emergence herbicidal action against STEME; format: in vivo, Stellaria media; settings: Stellaria media, 504 h; for pest or weed control at 5 g/ha: dosage 5 g/ha
Summary of the method: as §2

VERPE [21] = test: Post-emergence herbicidal action against VERPE; format: in vivo, Veronica persica; settings: Veronica persica, 504 h
Summary of the method: as §2

VIOTR [22] = test: Post-emergence herbicidal action against VIOTR; format: in vivo, Viola tricolor; settings: Viola tricolor, 504 h
Summary of the method: as §2

DIGSA [23] = test: Post-emergence herbicidal action against DIGSA; format: in vivo, Digitaria sanguinalis; settings: Digitaria sanguinalis, 504 h
Summary of the method: as §2

AVEFA [24] = test: Post-emergence herbicidal action against AVEFA; format: in vivo, Avena fatua; settings: Avena fatua, 504 h, 20 g/ha, visual assessment about 3 weeks after treatment, 100% = plants have died, 0% = like control plants
Summary of the method: as §2

| SMILES | pest or weed control at 80 g/ha (ABUTH [1]) | pest or weed control at 80 g/ha (ALOMY [2]) | pest or weed control at 20 g/ha (AMARE [3]) | pest or weed control at 80 g/ha (AMARE [3]) | pest or weed control at 80 g/ha (AVEFA [4]) | pest or weed control at 80 g/ha (ECHCG [5]) | pest or weed control at 80 g/ha (LOLRI) | pest or weed control at 20 g/ha (MATIN [6]) | pest or weed control at 80 g/ha (MATIN [6]) | pest or weed control at 80 g/ha (PHBPU [7]) | pest or weed control at 80 g/ha (POLCO) | pest or weed control at 80 g/ha (SETVI [8]) | pest or weed control at 20 g/ha (STEME [9]) | pest or weed control at 80 g/ha (STEME [9]) | pest or weed control at 80 g/ha (VERPE [10]) | pest or weed control at 20 g/ha (VIOTR [11]) | pest or weed control at 80 g/ha (VIOTR [11]) | pest or weed control at 20 g/ha (DIGSA [12]) | pest or weed control at 80 g/ha (DIGSA [12]) | pest or weed control at 5 g/ha (ABUTH [13]) | other results |
| --- | --- | --- | --- | --- | --- | --- | --- | --- | --- | --- | --- | --- | --- | --- | --- | --- | --- | --- | --- | --- | --- |
| CNC(=O)c1c(C(F)(F)F)ccc(C(=O)Nc2nnnn2C)c1C [Example 1-25] | 100% | 90% | 100% | 100% | 90% | 100% | 80% | 90% | 100% | 90% | 80% | 100% | 80% | 90% | 100% | 80% | 100% | 90% | 100% | 100% | pest or weed control at 20 g/ha (SETVI [8]; dosage 20 g/ha): 80%; pest or weed control at 20 g/ha (VERPE [10]; dosage 20 g/ha): 80%; pest or weed control at 20 g/ha (ABUTH [13]): 100%; pest or weed control at 20 g/ha (ALOMY [14]): 100%; pest or weed control at 20 g/ha (AMARE [15]): 100%; pest or weed control at 20 g/ha (ECHCG [16]): 100%; pest or weed control at 20 g/ha (HORMU): 100%; pest or weed control at 20 g/ha (MATIN [17]): 100%; pest or weed control at 20 g/ha (PHBPU [18]): 80%; pest or weed control at 20 g/ha (SETVI [19]): 80%; pest or weed control at 20 g/ha (STEME [20]): 100%; pest or weed control at 5 g/ha (STEME [20]): 80%; pest or weed control at 20 g/ha (VERPE [21]): 80%; pest or weed control at 5 g/ha (VIOTR [22]; 5 g/ha): 100%; pest or weed control at 20 g/ha (VIOTR [22]): 100%; pest or weed control at 5 g/ha (DIGSA [23]): 90%; pest or weed control at 20 g/ha (DIGSA [23]): 100% |
| CNC(=O)c1c(C(F)F)ccc(C(=O)Nc2nnnn2C)c1SC [Example 1-87] | 100% | 90% | 90% | 100% | 90% | 100% | 80% | 80% | 90% | 80% | 90% | 100% | 90% | 100% | 90% | 80% | 100% | 100% | 100% | 90% | pest or weed control at 20 g/ha (ABUTH [1]; dosage 20 g/ha, scored visually after 3 weeks vs untreated controls, 100% = plants have died, 0% = like control plants, read-out: Pre-emergence action against ABUTH (herbicidal activity in percent)): 100%; pest or weed control at 20 g/ha (ABUTH [13]): 90%; pest or weed control at 20 g/ha (ALOMY [14]): 80%; pest or weed control at 20 g/ha (AMARE [15]): 100%; pest or weed control at 20 g/ha (AVEFA [24]): 80%; pest or weed control at 5 g/ha (ECHCG [16]; dosage 5 g/ha): 80%; pest or weed control at 20 g/ha (ECHCG [16]): 80%; pest or weed control at 20 g/ha (HORMU): 80%; pest or weed control at 20 g/ha (MATIN [17]): 80%; pest or weed control at 5 g/ha (PHBPU [18]; dosage 5 g/ha): 80%; pest or weed control at 20 g/ha (PHBPU [18]): 90%; pest or weed control at 5 g/ha (SETVI [19]; dosage 5 g/ha): 80%; pest or weed control at 20 g/ha (SETVI [19]): 90%; pest or weed control at 20 g/ha (STEME [20]): 100%; pest or weed control at 5 g/ha (STEME [20]): 80%; pest or weed control at 5 g/ha (VERPE [21]; 5 g/ha): 80%; pest or weed control at 20 g/ha (VERPE [21]): 90%; pest or weed control at 20 g/ha (VIOTR [22]): 80%; pest or weed control at 5 g/ha (DIGSA [23]): 100%; pest or weed control at 20 g/ha (DIGSA [23]): 100% |
